{
  "source": "patent US20080219975A1",
  "about": "“VEGFR3 INHIBITORS” (priority 2006, published 2008)",
  "key": {"[1]": {"tested_on": "VEGFR3 dependent VEGF-C stimulation of Erk1/2", "assay": "Inhibition of Erk activation induced by VEGF-C in HMVEC-d cells", "type": "cell-based, human", "conditions": "5 μM, 100 ng/ml VEGF-C (FIG. 2)", "procedure": "(§1) HMVEC-d cells (Cambrex) were cultured at 37 C in 5% CO2 in appropriate serum containing medium (Cambrex) on fibronectin coated 12-well plates (BD Biocoat, Becton Dickinson) for 4 days. Cells were then starved for 16 hours in the same medium as before, but lacking serum and containing SITE+3 (Invitrogen) instead. Cells were then preincubated with DMSO at 0.2% (the solvent) or 5 uM Compound 2 for 60 minutes and then either 10 ng/ml VEGF or 100 ng/ml VEGF-C (R&D systems) was added to the cells. Before, or 10 and 30 minutes after stimulation, the medium was removed, cells were rinsed with ice-cold PBS containing 0.1 mM sodiumorthovanadate and lysed in M-PER buffer (PIERCE) containing 0.1% SDS, and 1× phosphatase and protease inhibitors (HALT, PIERCE). Cells were scraped off the plates and incubated in lysis buffer for 30 minutes on ice and then centrifuged at 4° C. for 10 min at 16000×g. Lysates were quantified using the BCA reagent according to the manufacturer's instructions (PIERCE), and […] of total protein was loaded on SDS-polyacrylamide gels (NUPAGE, Invitrogen). Electrophoresis and blotting onto PVDF membranes was all performed using reagents from the NUPAGE system, according to the manufacturer's instructions. […]"}, "VEGFR3 [2]": {"target": "T1, VEGFR3 (Homo sapiens, UniProt P35916)", "T1 sequence (P35916 25-1363)": "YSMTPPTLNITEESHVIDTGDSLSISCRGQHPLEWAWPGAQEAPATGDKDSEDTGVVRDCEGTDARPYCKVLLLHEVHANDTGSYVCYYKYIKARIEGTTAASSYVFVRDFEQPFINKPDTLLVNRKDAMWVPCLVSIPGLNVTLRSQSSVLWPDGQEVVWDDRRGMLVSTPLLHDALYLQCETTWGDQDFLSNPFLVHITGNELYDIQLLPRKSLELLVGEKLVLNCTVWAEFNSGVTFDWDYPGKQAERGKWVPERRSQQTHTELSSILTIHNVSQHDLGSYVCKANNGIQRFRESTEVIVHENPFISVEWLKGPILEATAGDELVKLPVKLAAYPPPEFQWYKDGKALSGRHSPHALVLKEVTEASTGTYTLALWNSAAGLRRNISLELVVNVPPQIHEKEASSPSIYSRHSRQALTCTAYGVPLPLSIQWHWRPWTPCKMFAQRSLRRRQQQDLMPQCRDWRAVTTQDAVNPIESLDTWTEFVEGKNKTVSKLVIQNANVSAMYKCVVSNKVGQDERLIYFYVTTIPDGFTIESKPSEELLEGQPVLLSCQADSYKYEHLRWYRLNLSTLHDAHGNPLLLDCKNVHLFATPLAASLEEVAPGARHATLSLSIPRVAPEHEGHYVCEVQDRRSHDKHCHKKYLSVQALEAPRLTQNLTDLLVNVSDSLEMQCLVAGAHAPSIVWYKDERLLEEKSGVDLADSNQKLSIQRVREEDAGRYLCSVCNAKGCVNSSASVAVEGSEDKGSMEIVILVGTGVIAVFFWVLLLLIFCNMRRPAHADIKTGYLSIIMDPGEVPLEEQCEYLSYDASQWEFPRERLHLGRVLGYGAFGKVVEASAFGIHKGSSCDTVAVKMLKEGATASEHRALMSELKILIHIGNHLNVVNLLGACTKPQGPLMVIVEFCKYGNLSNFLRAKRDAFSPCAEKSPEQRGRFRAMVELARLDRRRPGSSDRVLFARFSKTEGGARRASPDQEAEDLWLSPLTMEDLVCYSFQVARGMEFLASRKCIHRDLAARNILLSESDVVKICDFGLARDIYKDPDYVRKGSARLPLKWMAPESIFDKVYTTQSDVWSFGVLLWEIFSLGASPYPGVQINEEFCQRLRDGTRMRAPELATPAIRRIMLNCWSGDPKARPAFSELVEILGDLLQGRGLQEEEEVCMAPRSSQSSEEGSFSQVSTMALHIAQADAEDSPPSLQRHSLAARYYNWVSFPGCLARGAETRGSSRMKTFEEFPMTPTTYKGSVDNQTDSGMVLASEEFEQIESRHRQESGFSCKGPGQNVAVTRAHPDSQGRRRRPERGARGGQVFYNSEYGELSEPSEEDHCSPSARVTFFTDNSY", "assay": "Inhibition of VEGF-C induced VEGFR-3 phosphorylation in PAE cells stably expressing human VEGFR-3", "type": "cell-based", "parameters": "expressed in transfected cells; host or cells: porcine aortic endothelial (PAE) cells", "conditions": "PAE cells expressing human VEGFR-3, 100 ng/ml VEGF-C, Western blot (FIG. 1)", "method": "For this assay, porcine aortic endothelial (PAE) cells stably expressing human VEGFR-3 were grown to confluency on 10 cm dishes. The cells were serum starved overnight and the media replaced with fresh serum-free media. […] This was followed by the addition of VEGF-C to a final concentration of 100 ng/ml and the cells incubated for 10 min at 37° C., after which they were washed with ice-cold PBS and then lysed. Cell lysates containing protease inhibitors were subjected to immunoprecipitation with an antibody specific for VEGFR-3 and the immunoprecipitates separated by SDS-PAGE. Proteins were transferred to a nitrocellulose membrane, and then probed first with a phospho-tyrosine antibody and then a VEGFR-3 antibody."}, "Xenopus tadpoles": {"tested_on": "Xenopus tadpoles", "assay": "VEGFR3 in vivo Xenopus assay (lymphangiogenesis, LEC migration)", "conditions": "for % Relative Area 2-3: LECs in area 2-3 relative to vehicle control; for % Relative Max Migration: furthest LEC migration from PCV relative to vehicle control; for % embryos with reduced migration: stages 35-36 tadpoles", "procedure": "Xenopus tadpoles were used as a model (Ny et al Nature Medicine 11: 998-1004 (2005)) to analyze the effects of Compound 2 on lymphangiogenesis. The compound was administered daily in a dose dependent manner, with vehicle controls, to the medium of the Xenopus tadpoles starting at stage 26-28, i.e., before the formation of both blood and lymphatic vessels. The effects of the compound was monitored by “live analysis”, i.e. live embryos were examined 4 days later for evidence of lymph-vascular defects by trained observers. As an additional means of confirming the results, in a limited number of experiments, tadpoles were fixed at stage 35-36 and in situ hybridizations for Prox1 were performed to assess migration of lymphatic endothelial cells (LECs) from the posterior cardinal vein (PCV) to their dorsal endpoint, this reflecting an essential step in lymphangiogenesis. Under normal circumstances, LECs arise from the region of the PCV, accumulate there, and during the study period, they migrate dorsally to defined “areas” (Area 1 to Area 2 and Area 3), where they then further migrate rostrally and caudally to form the lymphatic vasculature in the tail and trunk. Defects in migration of the LECs from the PCV was quantified by determining the maximal migration of the cells, and by counting the number of cells in these different regions in the tail."}, "VEGFR3 [3]": {"target": "T1, VEGFR3", "assay": "VEGFR3 in vitro kinase assay", "type": "biochemical", "conditions": "10 μM ATP", "procedure": "The VEGFR3 kinase reaction was performed at 30° C. for 10 minutes in a 96-well microtiterplate. The 25 μl reaction volume contained 8 mM MOPS pH 7, 200 μM EDTA, 10 mM MgAc, 10 μM unlabeled ATP, […] AT33P, 500 μM JAK3-tide (Ac-GGEEEEYFELVKKKK-NH2), 25 ng VEGFR3 and 2% compound in 100% DMSO.\nThe reaction was stopped by adding 5 μl of a 3% phosphoric acid solution. 10 μl of the reaction mixture was then spotted onto a Filtermat P30 filter (Wallac) and washed 3 times for 5 min. in 0.75% phosphoric acid and 1 time for 2 min. in methanol prior to transferring to a sealable plastic bag containing 4 ml of scintillation liquid and reading in a scintillation counter."}, "[4]": {"tested_on": "VEGFR1 mediated VEGF signaling", "assay": "VEGF stimulation of Erk1/2 in HMVEC-d cells", "type": "cell-based, human", "conditions": "5 μM, 10 ng/ml VEGF (FIG. 2)", "procedure": "as §1"}},
  "data": [
    {"smiles": "COc1cc2ncnc3c2cc1OCCCCCCOc1c(Cl)cccc1N3", "note": "[4,6-ethanediylidene-19H-pyrimido[4,5-b][6,13,1]benzodioxaazacyclo-pentadecine, 15-chloro-8,9,10,11,12,13-hexahydro-20-methoxy-]", "values": [
      {"measurement": "melting point", "result": "255.5 to 260.2", "unit": "°C"}
    ]},
    {"smiles": "COc1cc2ncnc3c2cc1OCCCCCN(C)Cc1ccc(Br)cc1N3", "note": "[Compound 2, 4,6-ethanediylidenepyrimido[4,5-b][6,1,12]benzoxadiazacyclo-pentadecine, 17-bromo-8,9,10,11,12,13,14,19-octahydro-20-methoxy-13-methyl-]", "values": [
      {"measurement": "phosphorylation of Erk1/2 by VEGF-C", "setting": "[1]", "result": "prevented"},
      {"measurement": "VEGF-C induced VEGFR-3 phosphorylation", "setting": "VEGFR3 [2]", "result": "dose dependent reduction"},
      {"measurement": "% Relative Area 2-3", "setting": "Xenopus tadpoles; 0.3125 μM", "result": "37 ± 20", "unit": "%"},
      {"measurement": "% Relative Max Migration", "setting": "Xenopus tadpoles; 0.3125 μM", "result": "73 ± 22", "unit": "%"},
      {"measurement": "% embryos with reduced migration", "setting": "Xenopus tadpoles; 0.3125 μM", "result": 57, "unit": "%"},
      {"measurement": "% Relative Area 2-3", "setting": "Xenopus tadpoles; 1.25 μM", "result": "20 ± 8", "unit": "%"},
      {"measurement": "% Relative Max Migration", "setting": "Xenopus tadpoles; 1.25 μM", "result": "47 ± 5", "unit": "%"},
      {"measurement": "% embryos with reduced migration", "setting": "Xenopus tadpoles; 1.25 μM", "result": 63, "unit": "%"},
      {"measurement": "% Relative Area 2-3", "setting": "Xenopus tadpoles; 5 μM", "result": "123 ± 32", "unit": "%"},
      {"measurement": "% Relative Max Migration", "setting": "Xenopus tadpoles; 5 μM", "result": "121 ± 3", "unit": "%"},
      {"measurement": "% embryos with reduced migration", "setting": "Xenopus tadpoles; 5 μM", "result": 40, "unit": "%"},
      {"measurement": "% Relative Area 2-3", "setting": "Xenopus tadpoles; 20 μM", "result": "19 ± 8", "unit": "%"},
      {"measurement": "% Relative Max Migration", "setting": "Xenopus tadpoles; 20 μM", "result": "35 ± 1", "unit": "%"},
      {"measurement": "tadpoles that developed edema", "setting": "Xenopus tadpoles; 20 uM, live screening", "result": 10, "unit": "%"},
      {"measurement": "% embryos with reduced migration", "setting": "Xenopus tadpoles; 20 μM", "result": 60, "unit": "%"},
      {"measurement": "% Relative Area 2-3", "setting": "Xenopus tadpoles; 80 μM", "result": "56 ± 15", "unit": "%"},
      {"measurement": "% Relative Max Migration", "setting": "Xenopus tadpoles; 80 μM", "result": "67 ± 21", "unit": "%"},
      {"measurement": "% embryos with reduced migration", "setting": "Xenopus tadpoles; 80 μM", "result": 80, "unit": "%"},
      {"measurement": "tadpoles with hemorrhages", "setting": "Xenopus tadpoles; concentrations >50 uM, live screening", "result": 30, "unit": "%"},
      {"measurement": "effects in Xenopus tadpole model", "setting": "Xenopus tadpoles; in vivo", "result": "phenocopy the effects of VEGF-C knockout"},
      {"measurement": "Lymphatic Endothelial Cell (LEC) migration in tadpoles", "setting": "Xenopus tadpoles; stage 35-36 tadpoles", "result": "dose dependently inhibits"},
      {"measurement": "IC50", "setting": "VEGFR3 [3]", "result": 18.2, "unit": "nM"},
      {"measurement": "VEGF stimulation of Erk1/2", "setting": "[4]", "result": "did not interfere"}
    ]}
  ]
}
